{"source": "the NIST ThermoML archive (doi:10.1016/j.jct.2014.03.021)", "assay": "refractive index (Na D-line) (dimensionless); xn = mol fraction of the nth substance listed", "conditions": "101 kPa, Liquid, Standard Abbe refractometry", "note": "Numbers after ± are expanded uncertainties."}
{"smiles": "C[C@H](O)C(=O)[O-].C[N+](C)(C)CCO", "note": "+ O", "values": [{"measurement": "refractive index", "setting": "293.15 K, x1 = 0.0258", "value": "1.36903 ± 0.00047"}, {"measurement": "refractive index", "setting": "293.15 K, x1 = 0.0511", "value": "1.39091 ± 0.00048"}, {"measurement": "refractive index", "setting": "293.15 K, x1 = 0.074", "value": "1.41121 ± 0.0004"}, {"measurement": "refractive index", "setting": "293.15 K, x1 = 0.1027", "value": "1.41982 ± 0.00035"}, {"measurement": "refractive index", "setting": "293.15 K, x1 = 0.1965", "value": "1.43901 ± 0.00039"}, {"measurement": "refractive index", "setting": "293.15 K, x1 = 0.2957", "value": "1.45194 ± 0.00045"}, {"measurement": "refractive index", "setting": "293.15 K, x1 = 0.416", "value": "1.46075 ± 0.00054"}, {"measurement": "refractive index", "setting": "293.15 K, x1 = 0.5184", "value": "1.46916 ± 0.00062"}, {"measurement": "refractive index", "setting": "293.15 K, x1 = 0.5347", "value": "1.46974 ± 0.00064"}, {"measurement": "refractive index", "setting": "293.15 K, x1 = 0.6044", "value": "1.47013 ± 0.00069"}, {"measurement": "refractive index", "setting": "293.15 K, x1 = 0.6931", "value": "1.47355 ± 0.00077"}, {"measurement": "refractive index", "setting": "293.15 K, x1 = 0.7801", "value": "1.47251 ± 0.00085"}, {"measurement": "refractive index", "setting": "293.15 K, x1 = 0.8279", "value": "1.47481 ± 0.00089"}, {"measurement": "refractive index", "setting": "293.15 K, x1 = 0.8996", "value": "1.48014 ± 0.00096"}, {"measurement": "refractive index", "setting": "298.15 K, x1 = 0.0258", "value": "1.36828 ± 0.00047"}, {"measurement": "refractive index", "setting": "298.15 K, x1 = 0.0511", "value": "1.38998 ± 0.00047"}, {"measurement": "refractive index", "setting": "298.15 K, x1 = 0.074", "value": "1.4101 ± 0.00039"}, {"measurement": "refractive index", "setting": "298.15 K, x1 = 0.1027", "value": "1.41868 ± 0.00035"}, {"measurement": "refractive index", "setting": "298.15 K, x1 = 0.1965", "value": "1.43773 ± 0.00039"}, {"measurement": "refractive index", "setting": "298.15 K, x1 = 0.2957", "value": "1.45066 ± 0.00045"}, {"measurement": "refractive index", "setting": "298.15 K, x1 = 0.416", "value": "1.4594 ± 0.00054"}, {"measurement": "refractive index", "setting": "298.15 K, x1 = 0.5184", "value": "1.46786 ± 0.00062"}, {"measurement": "refractive index", "setting": "298.15 K, x1 = 0.5347", "value": "1.46843 ± 0.00064"}, {"measurement": "refractive index", "setting": "298.15 K, x1 = 0.6044", "value": "1.46887 ± 0.00069"}, {"measurement": "refractive index", "setting": "298.15 K, x1 = 0.6931", "value": "1.4723 ± 0.00077"}, {"measurement": "refractive index", "setting": "298.15 K, x1 = 0.7801", "value": "1.47121 ± 0.00085"}, {"measurement": "refractive index", "setting": "298.15 K, x1 = 0.8279", "value": "1.47368 ± 0.00089"}, {"measurement": "refractive index", "setting": "298.15 K, x1 = 0.8996", "value": "1.47898 ± 0.00096"}, {"measurement": "refractive index", "setting": "303.15 K, x1 = 0.0258", "value": "1.36748 ± 0.00046"}, {"measurement": "refractive index", "setting": "303.15 K, x1 = 0.0511", "value": "1.38899 ± 0.00047"}, {"measurement": "refractive index", "setting": "303.15 K, x1 = 0.074", "value": "1.40897 ± 0.00039"}, {"measurement": "refractive index", "setting": "303.15 K, x1 = 0.1027", "value": "1.41749 ± 0.00035"}, {"measurement": "refractive index", "setting": "303.15 K, x1 = 0.1965", "value": "1.43645 ± 0.00039"}, {"measurement": "refractive index", "setting": "303.15 K, x1 = 0.2957", "value": "1.44934 ± 0.00045"}, {"measurement": "refractive index", "setting": "303.15 K, x1 = 0.416", "value": "1.45817 ± 0.00054"}, {"measurement": "refractive index", "setting": "303.15 K, x1 = 0.5184", "value": "1.46656 ± 0.00062"}, {"measurement": "refractive index", "setting": "303.15 K, x1 = 0.5347", "value": "1.46709 ± 0.00063"}, {"measurement": "refractive index", "setting": "303.15 K, x1 = 0.6044", "value": "1.46754 ± 0.00069"}, {"measurement": "refractive index", "setting": "303.15 K, x1 = 0.6931", "value": "1.47098 ± 0.00077"}, {"measurement": "refractive index", "setting": "303.15 K, x1 = 0.7801", "value": "1.47001 ± 0.00085"}, {"measurement": "refractive index", "setting": "303.15 K, x1 = 0.8279", "value": "1.47226 ± 0.00089"}, {"measurement": "refractive index", "setting": "303.15 K, x1 = 0.8996", "value": "1.47758 ± 0.00096"}, {"measurement": "refractive index", "setting": "308.15 K, x1 = 0.0258", "value": "1.36732 ± 0.00046"}, {"measurement": "refractive index", "setting": "308.15 K, x1 = 0.0511", "value": "1.38799 ± 0.00047"}, {"measurement": "refractive index", "setting": "308.15 K, x1 = 0.074", "value": "1.4078 ± 0.00039"}, {"measurement": "refractive index", "setting": "308.15 K, x1 = 0.1027", "value": "1.4163 ± 0.00035"}, {"measurement": "refractive index", "setting": "308.15 K, x1 = 0.1965", "value": "1.43516 ± 0.00039"}, {"measurement": "refractive index", "setting": "308.15 K, x1 = 0.2957", "value": "1.448 ± 0.00045"}, {"measurement": "refractive index", "setting": "308.15 K, x1 = 0.416", "value": "1.45679 ± 0.00054"}, {"measurement": "refractive index", "setting": "308.15 K, x1 = 0.5184", "value": "1.46532 ± 0.00062"}, {"measurement": "refractive index", "setting": "308.15 K, x1 = 0.5347", "value": "1.46577 ± 0.00063"}, {"measurement": "refractive index", "setting": "308.15 K, x1 = 0.6044", "value": "1.4662 ± 0.00069"}, {"measurement": "refractive index", "setting": "308.15 K, x1 = 0.6931", "value": "1.46966 ± 0.00077"}, {"measurement": "refractive index", "setting": "308.15 K, x1 = 0.7801", "value": "1.46842 ± 0.00085"}, {"measurement": "refractive index", "setting": "308.15 K, x1 = 0.8279", "value": "1.47073 ± 0.00089"}, {"measurement": "refractive index", "setting": "308.15 K, x1 = 0.8996", "value": "1.47607 ± 0.00096"}, {"measurement": "refractive index", "setting": "313.15 K, x1 = 0.0258", "value": "1.36664 ± 0.00045"}, {"measurement": "refractive index", "setting": "313.15 K, x1 = 0.0511", "value": "1.38719 ± 0.00046"}, {"measurement": "refractive index", "setting": "313.15 K, x1 = 0.074", "value": "1.40673 ± 0.00039"}, {"measurement": "refractive index", "setting": "313.15 K, x1 = 0.1027", "value": "1.4151 ± 0.00035"}, {"measurement": "refractive index", "setting": "313.15 K, x1 = 0.1965", "value": "1.43386 ± 0.00039"}, {"measurement": "refractive index", "setting": "313.15 K, x1 = 0.2957", "value": "1.44669 ± 0.00045"}, {"measurement": "refractive index", "setting": "313.15 K, x1 = 0.416", "value": "1.45543 ± 0.00054"}, {"measurement": "refractive index", "setting": "313.15 K, x1 = 0.5184", "value": "1.46399 ± 0.00062"}, {"measurement": "refractive index", "setting": "313.15 K, x1 = 0.5347", "value": "1.46444 ± 0.00063"}, {"measurement": "refractive index", "setting": "313.15 K, x1 = 0.6044", "value": "1.46489 ± 0.00069"}, {"measurement": "refractive index", "setting": "313.15 K, x1 = 0.6931", "value": "1.46835 ± 0.00077"}, {"measurement": "refractive index", "setting": "313.15 K, x1 = 0.7801", "value": "1.46703 ± 0.00085"}, {"measurement": "refractive index", "setting": "313.15 K, x1 = 0.8279", "value": "1.46931 ± 0.00089"}, {"measurement": "refractive index", "setting": "313.15 K, x1 = 0.8996", "value": "1.47467 ± 0.00096"}, {"measurement": "refractive index", "setting": "318.15 K, x1 = 0.0258", "value": "1.36649 ± 0.00045"}, {"measurement": "refractive index", "setting": "318.15 K, x1 = 0.0511", "value": "1.38658 ± 0.00046"}, {"measurement": "refractive index", "setting": "318.15 K, x1 = 0.074", "value": "1.40601 ± 0.00039"}, {"measurement": "refractive index", "setting": "318.15 K, x1 = 0.1027", "value": "1.41389 ± 0.00035"}, {"measurement": "refractive index", "setting": "318.15 K, x1 = 0.1965", "value": "1.43253 ± 0.00039"}, {"measurement": "refractive index", "setting": "318.15 K, x1 = 0.2957", "value": "1.44535 ± 0.00045"}, {"measurement": "refractive index", "setting": "318.15 K, x1 = 0.416", "value": "1.45415 ± 0.00054"}, {"measurement": "refractive index", "setting": "318.15 K, x1 = 0.5184", "value": "1.46255 ± 0.00062"}, {"measurement": "refractive index", "setting": "318.15 K, x1 = 0.5347", "value": "1.46311 ± 0.00064"}, {"measurement": "refractive index", "setting": "318.15 K, x1 = 0.6044", "value": "1.46346 ± 0.00069"}, {"measurement": "refractive index", "setting": "318.15 K, x1 = 0.6931", "value": "1.46704 ± 0.00077"}, {"measurement": "refractive index", "setting": "318.15 K, x1 = 0.7801", "value": "1.46554 ± 0.00085"}, {"measurement": "refractive index", "setting": "318.15 K, x1 = 0.8279", "value": "1.46789 ± 0.00089"}, {"measurement": "refractive index", "setting": "318.15 K, x1 = 0.8996", "value": "1.47331 ± 0.00096"}, {"measurement": "refractive index", "setting": "323.15 K, x1 = 0.0258", "value": "1.36665 ± 0.00046"}, {"measurement": "refractive index", "setting": "323.15 K, x1 = 0.0511", "value": "1.38756 ± 0.00046"}, {"measurement": "refractive index", "setting": "323.15 K, x1 = 0.074", "value": "1.40547 ± 0.00039"}, {"measurement": "refractive index", "setting": "323.15 K, x1 = 0.1027", "value": "1.41332 ± 0.00035"}, {"measurement": "refractive index", "setting": "323.15 K, x1 = 0.1965", "value": "1.43117 ± 0.00039"}, {"measurement": "refractive index", "setting": "323.15 K, x1 = 0.2957", "value": "1.44401 ± 0.00045"}, {"measurement": "refractive index", "setting": "323.15 K, x1 = 0.416", "value": "1.45266 ± 0.00054"}, {"measurement": "refractive index", "setting": "323.15 K, x1 = 0.5184", "value": "1.46151 ± 0.00062"}, {"measurement": "refractive index", "setting": "323.15 K, x1 = 0.5347", "value": "1.4618 ± 0.00063"}, {"measurement": "refractive index", "setting": "323.15 K, x1 = 0.6044", "value": "1.46206 ± 0.00069"}, {"measurement": "refractive index", "setting": "323.15 K, x1 = 0.6931", "value": "1.46574 ± 0.00077"}, {"measurement": "refractive index", "setting": "323.15 K, x1 = 0.7801", "value": "1.46388 ± 0.00085"}, {"measurement": "refractive index", "setting": "323.15 K, x1 = 0.8279", "value": "1.46631 ± 0.00089"}, {"measurement": "refractive index", "setting": "323.15 K, x1 = 0.8996", "value": "1.47199 ± 0.00096"}]}
